Experimental data taken from US9073909B2, “[1,3]oxazines” (HOFFMANN-LA ROCHE INC., priority 2011, dated 2015).

Columns and labels:
[1] = molecular target: T1, BACE1 (Homo sapiens, UniProt P56817); test: Cellular Aβ-lowering assay (BACE1 cell act. Aβ40); format: cell-based; details: HEK293 cells stably expressing human APP695; Aβ40 in supernatant
T1 construct: from tissue; host or cells: human brain tissue slices
Experimental: a) Human HEK293 cells which are stably transfected with a vector expressing a cDNA of the human APP wt gene (APP695) were used to assess the potency of the compounds in a cellular assay. The cells were seeded in 96-well microtiter plates in cell culture medium (Iscove, plus 10% (v/v) fetal bovine serum, glutamine, penicillin/streptomycin) to about 80% confluence and the compounds were added at a 10× concentration in 1/10 volume of medium without FCS containing 8% DMSO (final concentration of DMSO was kept at 0.8% v/v). After 18-20 hrs incubation at 37° C. and 5% CO2 in a humidified incubator the culture supernatant was harvested for the determination of Aβ40 concentrations. […] After stopping the reaction with one volume 1 N H2SO4 the reaction was measured in an ELISA reader at 450 nm wavelength. The concentrations of Aβ in the culture supernatants were calculated from a standard curve obtained with known amounts of pure Aβ peptide. […]
In a Perkin-Elmer White Optiplate-384 (Cat#6007290), 2 μl culture supernatants were combined with 2 μl of a 10× AlphaLISA Anti-hAβAcceptor beads+Biotinylated Antibody Anti-Aβ 1-40 Mix (50 μg/mL/5 nM). […] Light Emission at 615 nm was then recorded using EnVision-Alpha Reader. Levels of Aβ40 in the culture supernatants were calculated as percentage of maximum signal (cells treated with 1% DMSO without inhibitor). […]

[2] = molecular target: T2, BACE1 (Rattus norvegicus, UniProt P56819); test: In vitro autoradiography in rat brain sections; format: binding
T2 construct: from tissue; host or cells: rat brain (sagittal sections in vitro; brain of living rats for the ex vivo study)
T2 sequence (P56819 46-501): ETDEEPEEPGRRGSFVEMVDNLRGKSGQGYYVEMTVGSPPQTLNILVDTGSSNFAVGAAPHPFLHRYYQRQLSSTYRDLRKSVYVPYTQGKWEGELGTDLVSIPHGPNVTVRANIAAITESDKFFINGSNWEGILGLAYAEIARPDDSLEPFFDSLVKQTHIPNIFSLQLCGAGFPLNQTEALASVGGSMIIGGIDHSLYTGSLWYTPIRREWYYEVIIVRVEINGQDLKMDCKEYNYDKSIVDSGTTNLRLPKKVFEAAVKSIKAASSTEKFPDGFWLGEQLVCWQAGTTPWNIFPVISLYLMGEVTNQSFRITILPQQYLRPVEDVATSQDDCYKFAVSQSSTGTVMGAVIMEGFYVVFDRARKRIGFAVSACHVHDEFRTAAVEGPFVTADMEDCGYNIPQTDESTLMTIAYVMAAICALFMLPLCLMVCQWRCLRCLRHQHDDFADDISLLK
Description: The distribution of [^3H]-5-but-2-ynyloxy-pyrazine-2-carboxylic acid [3-((R)-2-amino-5,5-difluoro-4-methyl-5,6-dihydro-4H-[1,3]oxazin-4-yl)-4-fluoro-phenyl]-amide binding sites as well as the binding specificity for BACE1 was investigated by in vitro autoradiography using male Sprague-Dawley rats. Animals were sacrificed, their brains were rapidly removed and frozen in dry ice powder. Ten μm-thick sagittal sections were cut in a Cryostat microtome and thaw-mounted on adhesion glass slides. Brain sections were first incubated for 10 min in Ringer buffer (NaCl 120 mM, KCl 5 mM, CaCl2 2 mM, MgCl2 1 mM, Tris-HCl 50 mM pH 7.4) at RT and then for 60 min in Ringer buffer containing either 1 nM or 10 nM [^3H]-5-but-2-ynyloxy-pyrazine-2-carboxylic acid [3-((R)-2-amino-5,5-difluoro-4-methyl-5,6-dihydro-4H-[1,3]oxazin-4-yl)-4-fluoro-phenyl]-amide. For the evaluation of non-specific-binding (NSB) of the radiotracer an additional series of sections was incubated with Ringer buffer containing the radiotracer and a reference BACE1 inhibitor ((S)-3-(3,6-dihydro-2H-pyran-4-yl)-7-(2-fluoropyridin-3-yl)-5′H-spiro[chromeno[2,3-c]pyridine-5,5′-oxazol]-2′-amine, CAS Nr 1215869-02-5; example 294 in WO2010030954) at 10 μM. At the end of the incubation, sections were rinsed 3×5 min in ice-cold Ringer buffer and then rapidly dipped once in distilled water at 4° C. Slide-mounted brain sections were dried under a flow of cold air for 3 h and exposed together with [^3H]-microscale to a Fuji Imaging plate for 5 days. The imaging plate was then scanned in a high resolution Fuji BAS reader. The total amount of radiotracer bound to the brain areas of interest (TB) was measured using the MCID image analysis program and expressed as fmol of bound radiotracer/mg of protein. The amount of [^3H]-5-but-2-ynyloxy-pyrazine-2-carboxylic acid [3-((R)-2-amino-5,5-difluoro-4-methyl-5,6-dihydro-4H-[1,3]oxazin-4-yl)-4-fluoro-phenyl]-amide specifically bound to BACE1 (SB) was calculated according to the formula SB=TB−NSB. […]

[3] = molecular target: T2, BACE1; test: Ex vivo autoradiography in rats after i.v. tracer injection
Experimental: The in vivo characteristics of [^3H]-5-but-2-ynyloxy-pyrazine-2-carboxylic acid [3-((R)-2-amino-5,5-difluoro-4-methyl-5,6-dihydro-4H-[1,3]oxazin-4-yl)-4-fluoro-phenyl]-amide for imaging BACE1 were analyzed by an ex vivo autoradiographical approach using young male Sprague-Dawley rats. Animals were intravenously injected with 1 mCi/kg [^3H]-5-but-2-ynyloxy-pyrazine-2-carboxylic acid [3-((R)-2-amino-5,5-difluoro-4-methyl-5,6-dihydro-4H-[1,3]oxazin-4-yl)-4-fluoro-phenyl]-amide corresponding to 37.7 nmol/kg and sacrificed at various time points post injection. To test the specificity of tracer binding in vivo, rats were pre-administered with 10 mg/kg of a reference BACE1 inhibitor ((S)-3-(3,6-dihydro-2H-pyran-4-yl)-7-(2-fluoropyridin-3-yl)-5′H-spiro[chromeno[2,3-c]pyridine-5,5′-oxazol]-2′-amine, CAS Nr 1215869-02-5; example 294 in WO2010030954) (p.o.) 3 h prior to tracer injection. Animals were sacrificed at various time points post injection (5, 15, 30, 60, 120 min p.i.), their brains were rapidly removed and frozen in dry ice powder. Ten μm-thick sagittal sections were cut in a Cryostat microtome and thaw-mounted on adhesion glass slides. Slide-mounted brain sections were dried under a flow of cold air for 3 h and exposed together with [^3H]-microscale to a Fuji Imaging plate for 5 days. The imaging plate was then scanned in a high resolution Fuji BAS reader. The total amount of radiotracer bound to the brain areas of interest (TB) was measured using the MCID image analysis program and expressed as fmol of bound radiotracer/mg of protein. The amount of [^3H]-5-but-2-ynyloxy-pyrazine-2-carboxylic acid [3-((R)-2-amino-5,5-difluoro-4-methyl-5,6-dihydro-4H-[1,3]oxazin-4-yl)-4-fluoro-phenyl]-amide specifically bound to BACE1 (SB) was calculated according to the formula SB=TB−NSB.

[4] = test system: BACE1; details: baboon, i.v. bolus, PET 0 to 120 minutes
Experimental: The PET experiments were carried out in male baboons (papio anubis). Animals were fasted for 12 hours prior to the PET study. Baboons were initially sedated intramuscularly with Ketamine hydrochloride with restraint dosages of 5-7 mg/kg to achieve a superficial level of anesthesia and then maintained on continuous Propofol intravenous infusion @ 0.3-0.4 mg/kg/h ([…] ® Injectable Emulsion). Circulatory volume was maintained by infusion of isotonic saline. A femoral arterial catheter was inserted for blood sampling. Physiological vital signs including heart rate, ECG, blood pressure and oxygen saturation were continuously monitored throughout the study. The animal was positioned in an ECAT HRRT® brain PET scanner (High Resolution Research Tomograph, CPS Innovations, Inc., Knoxville, Tenn.). The head of the animal was fitted with a thermoplastic mask that was attached to a head holder for reproducible fixation. A 6 min transmission scan with a 1 mCi Cs-137 point source was initially done for attenuation correction. […] The radioactivity of a VOI at time T was calculated as the weighted mean and expressed in mCi/ml. […]
SUV (%)=radioactivity (nCi/ml)/106/(dose (mCi)/body weight (kg)×103)×100, where numbers were used to make the unit for radioactivity equivalent between voxel radioactivity and radioactivity dose (106) and between body weight and voxel volume (103).

T1 sequence (P56817 46-501): as the sequence (P56819 46-501) above, with S82G, I162V, I165L, T180S, A182V, V340I, A393L, H443Q counted along it

## CC#CCOc1cnc(C(=O)Nc2ccc(F)c([C@@]3(C)N=C(N)OCC3(F)F)c2)cn1 [Example 1, 5-But-2-ynyloxy-pyrazine-2-carboxylic acid [3-((R)-2-amino-5,5-difluoro-4-methyl-5,6-dihydro-4H-[1,3]oxazin-4-yl)-4-fluoro-phenyl]-amide]
[1]
  IC50: 1.1 nM

## [^3H]-5-But-2-ynyloxy-pyrazine-2-carboxylic acid [3-((R)-2-amino-5,5-difluoro-4-methyl-5,6-dihydro-4H-[1,3]oxazin-4-yl)-4-fluoro-phenyl]-amide [Example 2]
[2]; 1 nM example 2 co-incubated with 10 μM specific BACE1 inhibitor A, rat brain sections
  reduction of tracer binding: more than 80%
[2]; male Sprague-Dawley rat sagittal brain sections
  brain regions with highest densities of binding sites: dentate gyms and the CA3 region of the hippocampus, the cerebellum, pallidum and substantia nigra
[2]; male Sprague-Dawley rat sagittal brain sections, 1 nM or 10 nM tracer
  distribution of binding sites in the rat brain: widespread distribution
[3]; 10 mg/kg reference BACE1 inhibitor p.o. 3 h prior to tracer injection
  in vivo binding after pre-treatment with BACE1 ligand A (specificity): clearly reduced
[3]; 1 mCi/kg i.v., ex vivo autoradiography
  in vivo distribution pattern of binding (regions of highest accumulation): highest accumulation in the dentate gyms and the CA3 region of the hippocampus, the cerebellum, pallidum and substantia nigra
[3]; 5, 15, 30, 60, 120 min post injection
  wash-out kinetics of tracer binding: favorable wash-out kinetics

## C[C@]1(c2cc(NC(=O)c3cnc(OCC#C[11CH3])cn3)ccc2F)N=C(N)OCC1(F)F [Example 3, [^11C]-5-But-2-ynyloxy-pyrazine-2-carboxylic acid [3-((R)-2-amino-5,5-difluoro-4-methyl-5,6-dihydro-4H-[1,3]oxazin-4-yl)-4-fluoro-phenyl]-amide]
[4]
  brain uptake of radiotracer: rapidly taken up in multiple brain areas
